# Reference: PubChem BioAssay AID1963851 (Molecular Pharmacology Branch, DTP, NCI, 2024)
# Test system: 188146-221-R-J1-PDC complex spheroid viability
# Test: Anticancer human tumor 188146-221-R-J1-PDC patient-derived colon adenocarcinoma cell line growth inhibition [POLQ]
# Details: for IC50: curve of first compound; for viability, T/C: stronger effect = lower value
# Summary of the method: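 Three-cell-type spheroids modelling solid tumor plus stroma served as the readout system; POL inhibitors were tested individually and in combination, concentration ranges set by clinical Cmax where known.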
# [1] = second compound 0.0316 µM, first compound 0.0316 µM
# [2] = second compound 0.0316 µM, first compound 0.1 µM
# [3] = second compound 0.0316 µM, first compound 0.316 µM
# [4] = second compound 0.0316 µM, first compound 1 µM
# [5] = second compound 0.1 µM, first compound 0.0316 µM
# [6] = second compound 0.1 µM, first compound 0.1 µM
# [7] = second compound 0.1 µM, first compound 0.316 µM
# [8] = second compound 0.1 µM, first compound 1 µM
# [9] = second compound 0.316 µM, first compound 0.0316 µM
# [10] = second compound 0.316 µM, first compound 0.1 µM
# [11] = second compound 0.316 µM, first compound 0.316 µM
# [12] = second compound 0.316 µM, first compound 1 µM
# [13] = second compound 1 µM, first compound 0.0316 µM
# [14] = second compound 1 µM, first compound 0.1 µM
# [15] = second compound 1 µM, first compound 0.316 µM
# [16] = second compound 1 µM, first compound 1 µM
# [17] = second compound 3.16 µM, first compound 0.0316 µM
# [18] = second compound 3.16 µM, first compound 0.1 µM
# [19] = second compound 3.16 µM, first compound 0.316 µM
# [20] = second compound 3.16 µM, first compound 1 µM
# [21] = second compound 10 µM, first compound 0.0316 µM
# [22] = second compound 10 µM, first compound 0.1 µM
# [23] = second compound 10 µM, first compound 0.316 µM
# [24] = second compound 10 µM, first compound 1 µM
# [25] = second compound 0.0316 µM, first compound 3.16 µM
# [26] = second compound 0.0316 µM, first compound 10 µM
# [27] = second compound 0.1 µM, first compound 3.16 µM
# [28] = second compound 0.1 µM, first compound 10 µM
# [29] = second compound 0.316 µM, first compound 3.16 µM
# [30] = second compound 0.316 µM, first compound 10 µM
# [31] = second compound 1 µM, first compound 3.16 µM
# [32] = second compound 1 µM, first compound 10 µM
# [33] = second compound 3.16 µM, first compound 3.16 µM
# [34] = second compound 3.16 µM, first compound 10 µM
# [35] = second compound 10 µM, first compound 3.16 µM
# [36] = second compound 10 µM, first compound 10 µM
# 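Further: spheroids exposed to compounds for seven days.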
# 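Wherever viability, T/C is given: 100% = DMSO vehicle control viability.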
smiles,measurement,setting,value
CCc1c2c(nc3ccc(O)cc13)-c1cc3c(c(=O)n1C2)COC(=O)[C@]3(O)CC + Cc1cccc(N(C)C(=O)C2C(O)CCN2c2nc(C)cc(C(F)(F)F)c2C#N)c1,IC50,second compound 0.0316 µM,18.7 nM
same,IC50,second compound 0.1 µM,24.7 nM
same,IC50,second compound 0.316 µM,24.3 nM
same,IC50,second compound 1 µM,23.8 nM
same,IC50,second compound 3.16 µM,22.1 nM
same,IC50,second compound 10 µM,16.8 nM
same,"viability, T/C","second compound 0.0316 µM, first compound 0.00316 µM",106%
same,"viability, T/C","second compound 0.0316 µM, first compound 0.01 µM",64.3%
same,"viability, T/C",[1],39.6%
same,"viability, T/C",[2],17.9%
same,"viability, T/C",[3],11.2%
same,"viability, T/C",[4],6.74%
same,"viability, T/C","second compound 0.1 µM, first compound 0.00316 µM",102%
same,"viability, T/C","second compound 0.1 µM, first compound 0.01 µM",81.4%
same,"viability, T/C",[5],39.9%
same,"viability, T/C",[6],19.9%
same,"viability, T/C",[7],10.1%
same,"viability, T/C",[8],8.21%
same,"viability, T/C","second compound 0.316 µM, first compound 0.00316 µM",99.1%
same,"viability, T/C","second compound 0.316 µM, first compound 0.01 µM",87.7%
same,"viability, T/C",[9],38.2%
same,"viability, T/C",[10],15.9%
same,"viability, T/C",[11],11.5%
same,"viability, T/C",[12],6.74%
same,"viability, T/C","second compound 1 µM, first compound 0.00316 µM",101%
same,"viability, T/C","second compound 1 µM, first compound 0.01 µM",78.2%
same,"viability, T/C",[13],40.7%
same,"viability, T/C",[14],17.3%
same,"viability, T/C",[15],9.53%
same,"viability, T/C",[16],8.73%
same,"viability, T/C","second compound 3.16 µM, first compound 0.00316 µM",86.1%
same,"viability, T/C","second compound 3.16 µM, first compound 0.01 µM",73.7%
same,"viability, T/C",[17],39.1%
same,"viability, T/C",[18],16.7%
same,"viability, T/C",[19],13.6%
same,"viability, T/C",[20],8.63%
same,"viability, T/C","second compound 10 µM, first compound 0.00316 µM",92.2%
same,"viability, T/C","second compound 10 µM, first compound 0.01 µM",65.1%
same,"viability, T/C",[21],31.2%
same,"viability, T/C",[22],17%
same,"viability, T/C",[23],15.2%
same,"viability, T/C",[24],9.83%
CC1COCCN1c1cc(-c2ccnn2C)c2ccnc(-c3ccn[nH]3)c2n1 (stereo unspecified) + COC1C(OC(N)=O)C(O)C(Oc2ccc3c(O)c(NC(=O)c4ccc(O)c(CC=C(C)C)c4)c(=O)oc3c2C)OC1(C)C,IC50,second compound 0.0316 µM,207 nM
same,IC50,second compound 0.1 µM,175 nM
same,IC50,second compound 0.316 µM,193 nM
same,IC50,second compound 1 µM,252 nM
same,IC50,second compound 3.16 µM,204 nM
same,IC50,second compound 10 µM,159 nM
same,"viability, T/C",[1],81.5%
same,"viability, T/C",[2],67.3%
same,"viability, T/C",[3],39.3%
same,"viability, T/C",[4],23.3%
same,"viability, T/C",[25],16.3%
same,"viability, T/C",[26],14%
same,"viability, T/C",[5],94.2%
same,"viability, T/C",[6],57.8%
same,"viability, T/C",[7],44.5%
same,"viability, T/C",[8],21.3%
same,"viability, T/C",[27],18.1%
same,"viability, T/C",[28],14.1%
same,"viability, T/C",[9],78.2%
same,"viability, T/C",[10],66.3%
same,"viability, T/C",[11],37.2%
same,"viability, T/C",[12],22.4%
same,"viability, T/C",[29],17.2%
same,"viability, T/C",[30],13.3%
same,"viability, T/C",[13],83.3%
same,"viability, T/C",[14],74.2%
same,"viability, T/C",[15],43.3%
same,"viability, T/C",[16],22.9%
same,"viability, T/C",[31],16.9%
same,"viability, T/C",[32],13.2%
same,"viability, T/C",[17],85.5%
same,"viability, T/C",[18],61.6%
same,"viability, T/C",[19],46.2%
same,"viability, T/C",[20],19.4%
same,"viability, T/C",[33],18.3%
same,"viability, T/C",[34],14.1%
same,"viability, T/C",[21],79.9%
same,"viability, T/C",[22],54.5%
same,"viability, T/C",[23],44.6%
same,"viability, T/C",[24],19.9%
same,"viability, T/C",[35],16.7%
same,"viability, T/C",[36],17%
CC(C)n1c(=O)n(C)c2cnc3cc(F)c(-c4ccc(OCCCN5CCCCC5)nc4)cc3c21 + COC1C(OC(N)=O)C(O)C(Oc2ccc3c(O)c(NC(=O)c4ccc(O)c(CC=C(C)C)c4)c(=O)oc3c2C)OC1(C)C,IC50,second compound 0.0316 µM,> 10000 nM
same,IC50,second compound 0.1 µM,> 10000 nM
same,IC50,second compound 0.316 µM,> 10000 nM
same,IC50,second compound 1 µM,> 10000 nM
same,IC50,second compound 3.16 µM,> 10000 nM
same,IC50,second compound 10 µM,> 10000 nM
same,"viability, T/C",[1],103%
same,"viability, T/C",[2],105%
same,"viability, T/C",[3],101%
same,"viability, T/C",[4],97.6%
same,"viability, T/C",[25],94.6%
same,"viability, T/C",[26],82.9%
same,"viability, T/C",[5],103%
same,"viability, T/C",[6],95.8%
same,"viability, T/C",[7],106%
same,"viability, T/C",[8],98%
same,"viability, T/C",[27],93.3%
same,"viability, T/C",[28],82%
same,"viability, T/C",[9],99.6%
same,"viability, T/C",[10],104%
same,"viability, T/C",[11],94.7%
same,"viability, T/C",[12],89.8%
same,"viability, T/C",[29],81.3%
same,"viability, T/C",[30],96.2%
same,"viability, T/C",[13],96.8%
same,"viability, T/C",[14],101%
same,"viability, T/C",[15],103%
same,"viability, T/C",[16],102%
same,"viability, T/C",[31],102%
same,"viability, T/C",[32],86.8%
same,"viability, T/C",[17],98.8%
same,"viability, T/C",[18],101%
same,"viability, T/C",[19],93.4%
same,"viability, T/C",[20],96.1%
same,"viability, T/C",[33],108%
same,"viability, T/C",[34],88.7%
same,"viability, T/C",[21],107%
same,"viability, T/C",[22],101%
same,"viability, T/C",[23],109%
same,"viability, T/C",[24],93.7%
same,"viability, T/C",[35],113%
same,"viability, T/C",[36],90.9%
